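Tested at 5 concentrations; 48 h exposure; 96-well plates; endpoints linearly interpolated, else capped at highest concentration. The concentration for full growth arrest is given as TGI.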
Assays:
Assay in all cases: NCI anticancer screen, dose series, 48 h
CCRF-CEM leukemia = test system: CCRF-CEM leukemia
TK-10 renal = test system: TK-10 renal
IGROV1 ovarian = test system: IGROV1 ovarian
HT29 colon = test system: HT29 colon
KM12 colon = test system: KM12 colon
DMS 114 small cell lung = test system: DMS 114 small cell lung
SF-295 CNS = test system: SF-295 CNS
SNB-78 CNS = test system: SNB-78 CNS
RXF 393 renal = test system: RXF 393 renal
SNB-19 CNS = test system: SNB-19 CNS
SK-OV-3 ovarian = test system: SK-OV-3 ovarian
U251 CNS = test system: U251 CNS
A549 NSCLC = test system: A549 NSCLC
NCI-H23 lung = test system: NCI-H23 lung
OVCAR-3 ovarian = test system: OVCAR-3 ovarian
SF-268 CNS = test system: SF-268 CNS
M14 melanoma = test system: M14 melanoma
LOX IMVI melanoma = test system: LOX IMVI melanoma
HL-60(TB) leukemia = test system: HL-60(TB) leukemia
MOLT-4 leukemia = test system: MOLT-4 leukemia
UO-31 renal = test system: UO-31 renal
K-562 leukemia = test system: K-562 leukemia
DLD-1 colon = test system: DLD-1 colon
SNB-75 CNS = test system: SNB-75 CNS
OVCAR-8 ovarian = test system: OVCAR-8 ovarian
COLO 205 colon = test system: COLO 205 colon
SF-539 CNS = test system: SF-539 CNS
786-0 renal = test system: 786-0 renal
SR leukemia = test system: SR leukemia
HOP-18 NSCLC = test system: HOP-18 NSCLC
NCI-H226 lung = test system: NCI-H226 lung
SK-MEL-28 melanoma = test system: SK-MEL-28 melanoma
M19-MEL melanoma = test system: M19-MEL melanoma
UACC-62 melanoma = test system: UACC-62 melanoma
ACHN renal = test system: ACHN renal
DMS 273 small cell lung = test system: DMS 273 small cell lung
OVCAR-4 ovarian = test system: OVCAR-4 ovarian
SK-MEL-5 melanoma = test system: SK-MEL-5 melanoma
EKVX NSCLC = test system: EKVX NSCLC
SW-620 colon = test system: SW-620 colon
RPMI-8226 leukemia = test system: RPMI-8226 leukemia
OVCAR-5 ovarian = test system: OVCAR-5 ovarian
RXF-631 renal = test system: RXF-631 renal
NCI-H460 lung = test system: NCI-H460 lung
SK-MEL-2 melanoma = test system: SK-MEL-2 melanoma
CAKI-1 renal = test system: CAKI-1 renal
UACC-257 melanoma = test system: UACC-257 melanoma
KM20L2 colon = test system: KM20L2 colon
HOP-62 NSCLC = test system: HOP-62 NSCLC
HCT-15 colon = test system: HCT-15 colon
HOP-92 NSCLC = test system: HOP-92 NSCLC
HCC-2998 colon = test system: HCC-2998 colon
MALME-3M melanoma = test system: MALME-3M melanoma
HCT-116 colon = test system: HCT-116 colon
SN12C renal = test system: SN12C renal
LXFL 529 NSCLC = test system: LXFL 529 NSCLC
XF 498 CNS = test system: XF 498 CNS
NCI-H522 lung = test system: NCI-H522 lung
A498 renal = test system: A498 renal

`O=C1C(c2ccccc2)=[N+]([O-])c2cc([N+](=O)[O-])c(/C(Cl)=C/c3ccccc3)cc21` gave a TGI (CCRF-CEM leukemia) of 40.3 µM, a TGI (TK-10 renal) of 82.3 µM and a TGI (IGROV1 ovarian) of 57.5 µM. For the same molecule, the TGI (HT29 colon) was 58.2 µM, the TGI (KM12 colon) was 59.8 µM and the TGI (DMS 114 small cell lung) was 22.9 µM. The TGI (SF-295 CNS) was > 100 µM, the TGI (SNB-78 CNS) was 96.9 µM and the TGI (RXF 393 renal) was 51.6 µM. The TGI (SNB-19 CNS) was > 100 µM, the TGI (SK-OV-3 ovarian) was > 100 µM and the TGI (U251 CNS) was 39.7 µM. For the same molecule, the TGI (A549 NSCLC) was > 100 µM, the TGI (NCI-H23 lung) was 60.1 µM and the TGI (OVCAR-3 ovarian) was 27 µM. For the same molecule, the TGI (SF-268 CNS) was > 100 µM, the TGI (M14 melanoma) was 40.9 µM and the TGI (LOX IMVI melanoma) was 26.6 µM. For the same molecule, the TGI (HL-60(TB) leukemia) was 18.4 µM, the TGI (MOLT-4 leukemia) was 49.2 µM and the TGI (UO-31 renal) was > 100 µM. For the same molecule, the TGI (K-562 leukemia) was 37.7 µM, the TGI (DLD-1 colon) was 45 µM and the TGI (SNB-75 CNS) was 62.8 µM. It also gave a TGI (OVCAR-8 ovarian) of 34.2 µM, a TGI (COLO 205 colon) of 31 µM and a TGI (SF-539 CNS) of 54.8 µM. It also gave a TGI (786-0 renal) of 82.9 µM, a TGI (SR leukemia) of 53 µM and a TGI (HOP-18 NSCLC) of 75.5 µM. The TGI (NCI-H226 lung) was > 100 µM, the TGI (SK-MEL-28 melanoma) was 61 µM and the TGI (M19-MEL melanoma) was 28.9 µM. It also gave a TGI (UACC-62 melanoma) of 83.4 µM, a TGI (ACHN renal) of 94.4 µM and a TGI (DMS 273 small cell lung) of 37.2 µM. The TGI (OVCAR-4 ovarian) was 30.7 µM, the TGI (SK-MEL-5 melanoma) was 44.4 µM and the TGI (EKVX NSCLC) was 78.9 µM. For the same molecule, the TGI (SW-620 colon) was 31.1 µM, the TGI (RPMI-8226 leukemia) was 42.5 µM and the TGI (OVCAR-5 ovarian) was 59.1 µM. It also gave a TGI (RXF-631 renal) of 21.4 µM.
In the case of `COc1cc2c(cc1OC)C(Cc1ccc(Oc3cc(CC4c5cc(OC)c(OC)cc5CCN4C)ccc3O)cc1)N(C)CC2` (stereo unspecified), the TGI (CCRF-CEM leukemia) was 58.4 µM, the TGI (TK-10 renal) was > 100 µM and the TGI (IGROV1 ovarian) was 56.5 µM. It also gave a TGI (NCI-H460 lung) of 80.4 µM, a TGI (HT29 colon) of 28.9 µM and a TGI (KM12 colon) of 70.7 µM. For the same molecule, the TGI (DMS 114 small cell lung) was 30.9 µM, the TGI (SF-295 CNS) was 47.1 µM and the TGI (SK-MEL-2 melanoma) was 31 µM. For the same molecule, the TGI (SNB-78 CNS) was > 100 µM, the TGI (RXF 393 renal) was 29.4 µM and the TGI (CAKI-1 renal) was 73.3 µM. For the same molecule, the TGI (SNB-19 CNS) was > 100 µM, the TGI (SK-OV-3 ovarian) was > 100 µM and the TGI (U251 CNS) was 38.2 µM. For the same molecule, the TGI (UACC-257 melanoma) was 32 µM, the TGI (A549 NSCLC) was > 100 µM and the TGI (NCI-H23 lung) was > 100 µM. For the same molecule, the TGI (KM20L2 colon) was 34.3 µM, the TGI (OVCAR-3 ovarian) was 50.1 µM and the TGI (HOP-62 NSCLC) was 57.4 µM. It also gave a TGI (SF-268 CNS) of 28.7 µM, a TGI (M14 melanoma) of 28.7 µM and a TGI (LOX IMVI melanoma) of 32.6 µM. It also gave a TGI (HCT-15 colon) of 32 µM, a TGI (HOP-92 NSCLC) of 55.9 µM and a TGI (HL-60(TB) leukemia) of 30.4 µM. For the same molecule, the TGI (MOLT-4 leukemia) was 41.5 µM, the TGI (UO-31 renal) was 28.3 µM and the TGI (K-562 leukemia) was 29.3 µM. It also gave a TGI (DLD-1 colon) of 38.7 µM, a TGI (HCC-2998 colon) of 28.1 µM and a TGI (SNB-75 CNS) of 31.6 µM. The TGI (OVCAR-8 ovarian) was > 100 µM, the TGI (MALME-3M melanoma) was 34.7 µM and the TGI (COLO 205 colon) was 23.8 µM. For the same molecule, the TGI (SF-539 CNS) was 30.6 µM, the TGI (786-0 renal) was 27.1 µM and the TGI (SR leukemia) was 24.1 µM. The TGI (HOP-18 NSCLC) was 76.6 µM, the TGI (NCI-H226 lung) was 57.5 µM and the TGI (HCT-116 colon) was 22 µM. For the same molecule, the TGI (SK-MEL-28 melanoma) was 30.2 µM, the TGI (SN12C renal) was > 100 µM and the TGI (M19-MEL melanoma) was 39 µM. The TGI (LXFL 529 NSCLC) was 28.5 µM, the TGI (XF 498 CNS) was 34.2 µM and the TGI (UACC-62 melanoma) was 32.4 µM. It also gave a TGI (NCI-H522 lung) of 25 µM, a TGI (ACHN renal) of 35.2 µM and a TGI (DMS 273 small cell lung) of 47.8 µM. The TGI (OVCAR-4 ovarian) was 54.7 µM, the TGI (SK-MEL-5 melanoma) was 29.1 µM and the TGI (EKVX NSCLC) was > 100 µM. It also gave a TGI (SW-620 colon) of 35.5 µM, a TGI (RPMI-8226 leukemia) of 51.4 µM and a TGI (A498 renal) of 49.1 µM. For the same molecule, the TGI (OVCAR-5 ovarian) was > 100 µM.
`O=C(NC1C2CC3CC(C2)CC1C3)c1ccncn1` (stereo unspecified) was tested, and the TGI (CCRF-CEM leukemia) was > 100 µM, the TGI (IGROV1 ovarian) was > 100 µM and the TGI (NCI-H460 lung) was > 100 µM. For the same molecule, the TGI (HT29 colon) was > 100 µM, the TGI (KM12 colon) was > 100 µM and the TGI (DMS 114 small cell lung) was > 100 µM. The TGI (SF-295 CNS) was > 100 µM, the TGI (SK-MEL-2 melanoma) was > 100 µM and the TGI (SNB-78 CNS) was > 100 µM. For the same molecule, the TGI (CAKI-1 renal) was > 100 µM, the TGI (SNB-19 CNS) was > 100 µM and the TGI (U251 CNS) was > 100 µM. For the same molecule, the TGI (UACC-257 melanoma) was > 100 µM, the TGI (A549 NSCLC) was > 100 µM and the TGI (NCI-H23 lung) was > 100 µM. The TGI (KM20L2 colon) was > 100 µM, the TGI (OVCAR-3 ovarian) was > 100 µM and the TGI (HOP-62 NSCLC) was > 100 µM. The TGI (SF-268 CNS) was > 100 µM, the TGI (M14 melanoma) was > 100 µM and the TGI (HCT-15 colon) was > 100 µM. For the same molecule, the TGI (HOP-92 NSCLC) was > 100 µM, the TGI (HL-60(TB) leukemia) was > 100 µM and the TGI (UO-31 renal) was > 100 µM. For the same molecule, the TGI (K-562 leukemia) was > 100 µM, the TGI (DLD-1 colon) was > 100 µM and the TGI (HCC-2998 colon) was > 100 µM. For the same molecule, the TGI (SNB-75 CNS) was > 100 µM, the TGI (OVCAR-8 ovarian) was > 100 µM and the TGI (MALME-3M melanoma) was > 100 µM. For the same molecule, the TGI (COLO 205 colon) was > 100 µM, the TGI (SF-539 CNS) was > 100 µM and the TGI (786-0 renal) was > 100 µM. For the same molecule, the TGI (NCI-H226 lung) was > 100 µM, the TGI (HCT-116 colon) was > 100 µM and the TGI (SK-MEL-28 melanoma) was > 100 µM. For the same molecule, the TGI (SN12C renal) was > 100 µM, the TGI (M19-MEL melanoma) was > 100 µM and the TGI (LXFL 529 NSCLC) was > 100 µM. For the same molecule, the TGI (UACC-62 melanoma) was > 100 µM, the TGI (NCI-H522 lung) was > 100 µM and the TGI (ACHN renal) was > 100 µM. For the same molecule, the TGI (DMS 273 small cell lung) was > 100 µM, the TGI (OVCAR-4 ovarian) was > 100 µM and the TGI (SK-MEL-5 melanoma) was > 100 µM. The TGI (EKVX NSCLC) was > 100 µM, the TGI (SW-620 colon) was > 100 µM and the TGI (A498 renal) was > 100 µM. For the same molecule, the TGI (OVCAR-5 ovarian) was > 100 µM and the TGI (RXF-631 renal) was > 100 µM.
